# Assay results from ChEMBL document CHEMBL1154669, “5-Aryl indanones and derivatives as non-steroidal progesterone receptor modulators” (Bioorg Med Chem Lett, 2009).
# Legend:
# Progesterone receptor [1] = target: T1, Progesterone receptor (Homo sapiens, UniProt P06401); assay: Agonist activity at progesterone receptor in human T47D cells assessed as alkaline phosphatase activity; type: functional, cell-based
# T1 sequence (P06401 whole entry): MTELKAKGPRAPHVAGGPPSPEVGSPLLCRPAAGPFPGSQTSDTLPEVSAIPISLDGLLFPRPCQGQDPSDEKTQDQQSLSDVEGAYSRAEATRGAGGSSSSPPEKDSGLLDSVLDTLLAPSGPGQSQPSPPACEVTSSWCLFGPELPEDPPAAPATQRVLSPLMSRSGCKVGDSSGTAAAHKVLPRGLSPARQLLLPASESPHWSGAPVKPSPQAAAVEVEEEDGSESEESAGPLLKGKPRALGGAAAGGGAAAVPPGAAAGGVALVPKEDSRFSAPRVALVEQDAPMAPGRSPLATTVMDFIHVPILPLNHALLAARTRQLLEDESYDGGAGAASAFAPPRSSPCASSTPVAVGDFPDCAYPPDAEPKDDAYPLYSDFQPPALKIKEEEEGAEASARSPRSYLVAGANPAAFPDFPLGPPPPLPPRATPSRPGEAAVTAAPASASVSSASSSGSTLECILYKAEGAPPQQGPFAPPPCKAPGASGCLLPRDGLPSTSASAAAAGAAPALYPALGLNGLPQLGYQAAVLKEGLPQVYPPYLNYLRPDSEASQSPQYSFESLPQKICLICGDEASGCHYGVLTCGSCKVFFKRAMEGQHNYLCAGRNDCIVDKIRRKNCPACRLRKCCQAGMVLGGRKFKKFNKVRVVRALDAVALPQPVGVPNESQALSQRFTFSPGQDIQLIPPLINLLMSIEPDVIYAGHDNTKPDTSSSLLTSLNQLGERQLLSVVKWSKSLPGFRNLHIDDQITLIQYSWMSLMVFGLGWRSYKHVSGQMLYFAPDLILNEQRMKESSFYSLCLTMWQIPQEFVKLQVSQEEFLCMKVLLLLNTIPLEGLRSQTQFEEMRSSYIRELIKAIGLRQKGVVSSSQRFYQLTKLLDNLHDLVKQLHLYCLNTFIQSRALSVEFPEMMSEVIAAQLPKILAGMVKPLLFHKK
# Progesterone receptor [2] = target: T1, Progesterone receptor; assay: Inhibition of progesterone receptor in human T47D cells assessed as progesteron-induced alkaline phosphatase activity; type: cell-based
Compound,EC50 (Progesterone receptor [1]) [nM],IC50 (Progesterone receptor [2]) [nM]
CCC1(O)CC(C)(C)c2cc(-c3ccc(C#N)n3C)ccc21 (configuration not stated),2,
CC1(C)C/C(=N\O)c2ccc(-c3cccc(C#N)c3)cc21,,317
CC1(C)CC(=O)c2ccc(-c3cccc(C#N)c3)cc21,,195
CC1(C)C/C(=N\O)c2ccc(-c3cccc(Cl)c3)cc21,,490
CC1(C)CC(=O)c2ccc(-c3ccc(Cl)c(Cl)c3)cc21,,79
Cn1c(C#N)ccc1-c1ccc2c(c1)CC/C2=N/O,> 3000,132
Cc1cccc(-c2ccc3c(c2)C(C)(C)C/C3=N\O)c1,,316
Cn1c(C#N)ccc1-c1ccc2c(c1)C(C)(C)CC2O (configuration not stated),19,
Cn1c(C#N)ccc1-c1ccc2c(c1)C(C)(C)CC2(C)O (configuration not stated),1,

# More lines, now with the values ahead:
EC50 (Progesterone receptor [1]) [nM],IC50 (Progesterone receptor [2]) [nM],Compound
> 3000,18,CC1CC(O)c2ccc(-c3ccc(C#N)n3C)cc21 (configuration not stated)
> 3000,10,Cn1c(C#N)ccc1-c1ccc2c(c1)CCC2O (configuration not stated)
> 3000,14,Cn1c(C#N)ccc1-c1ccc2c(c1)C(C)(C)C/C2=N/O
> 3000,65,CC1C/C(=N/O)c2ccc(-c3ccc(C#N)n3C)cc21 (configuration not stated)
> 3000,34,Cn1c(C#N)ccc1-c1ccc2c(c1)CCC2=O
> 3000,3,C#CCC1(O)CC(C)(C)c2cc(-c3ccc(C#N)n3C)ccc21 (configuration not stated)
